Assay results published in PubChem BioAssay (NCI).
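All cell lines were grown in 96-well plates and treated with compound for 48 hours. GI50 = concentration required for 50% inhibition of growth. Definition used: TGI = concentration required for complete inhibition of growth.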

What was measured:
Assay in all cases: inhibition of tumour cell growth, NCI panel, 48 h
NCI-H522 lung = tested on: NCI-H522 lung
RXF 393 renal = tested on: RXF 393 renal
CAKI-1 renal = tested on: CAKI-1 renal
HOP-62 NSCLC = tested on: HOP-62 NSCLC
ACHN renal = tested on: ACHN renal
HCT-116 colon = tested on: HCT-116 colon
T-47D breast = tested on: T-47D breast
MDA-MB-468 breast = tested on: MDA-MB-468 breast
UO-31 renal = tested on: UO-31 renal
LOX IMVI melanoma = tested on: LOX IMVI melanoma
SF-268 CNS = tested on: SF-268 CNS
HOP-92 NSCLC = tested on: HOP-92 NSCLC
OVCAR-3 ovarian = tested on: OVCAR-3 ovarian
TK-10 renal = tested on: TK-10 renal
DU-145 prostate = tested on: DU-145 prostate
SK-MEL-2 melanoma = tested on: SK-MEL-2 melanoma
NCI-H460 lung = tested on: NCI-H460 lung
NCI-H226 lung = tested on: NCI-H226 lung
A549 NSCLC = tested on: A549 NSCLC
SR leukemia = tested on: SR leukemia
M14 melanoma = tested on: M14 melanoma
SF-539 CNS = tested on: SF-539 CNS
786-0 renal = tested on: 786-0 renal
KM12 colon = tested on: KM12 colon
BT-549 breast = tested on: BT-549 breast
UACC-257 melanoma = tested on: UACC-257 melanoma
CCRF-CEM leukemia = tested on: CCRF-CEM leukemia
IGROV1 ovarian = tested on: IGROV1 ovarian
COLO 205 colon = tested on: COLO 205 colon
SN12C renal = tested on: SN12C renal

O=c1[nH]c2ccccc2cc1CSc1ccc(Nc2nccc(-c3ccc(Cl)cc3)n2)cc1
TGI (NCI-H522 lung): 6.79 µM | GI50 (RXF 393 renal): 1.7 µM | TGI (RXF 393 renal): 4.42 µM | GI50 (CAKI-1 renal): 1.17 µM | TGI (CAKI-1 renal): 2.73 µM | GI50 (HOP-62 NSCLC): 1.72 µM | TGI (HOP-62 NSCLC): 3.45 µM | GI50 (ACHN renal): 0.744 µM | TGI (ACHN renal): 2.18 µM | GI50 (HCT-116 colon): 0.644 µM | TGI (HCT-116 colon): 3.65 µM | GI50 (T-47D breast): 2.24 µM | TGI (T-47D breast): 8.07 µM | GI50 (MDA-MB-468 breast): 1.15 µM | TGI (MDA-MB-468 breast): 3.14 µM | GI50 (UO-31 renal): 1.83 µM | TGI (UO-31 renal): 4.03 µM | GI50 (LOX IMVI melanoma): 1.83 µM | TGI (LOX IMVI melanoma): 5.24 µM | GI50 (SF-268 CNS): 1.07 µM | TGI (SF-268 CNS): 4.97 µM | GI50 (HOP-92 NSCLC): 1.11 µM | TGI (HOP-92 NSCLC): 2.8 µM | GI50 (OVCAR-3 ovarian): 0.945 µM | TGI (OVCAR-3 ovarian): 2.46 µM | GI50 (TK-10 renal): 1.65 µM | TGI (TK-10 renal): 3.34 µM | GI50 (DU-145 prostate): 1.52 µM | TGI (DU-145 prostate): 9.16 µM | GI50 (SK-MEL-2 melanoma): 12.9 µM | TGI (SK-MEL-2 melanoma): 26.2 µM | GI50 (NCI-H460 lung): 0.383 µM | TGI (NCI-H460 lung): 1.42 µM | GI50 (NCI-H226 lung): 1.3 µM | TGI (NCI-H226 lung): 2.88 µM | GI50 (A549 NSCLC): 1.46 µM | TGI (A549 NSCLC): 3.5 µM | GI50 (SR leukemia): 6.37 µM | TGI (SR leukemia): 29.7 µM | GI50 (M14 melanoma): 4.9 µM | TGI (M14 melanoma): 30.9 µM | GI50 (SF-539 CNS): 1.66 µM | TGI (SF-539 CNS): 3.4 µM | GI50 (786-0 renal): 1.16 µM | TGI (786-0 renal): 2.55 µM | GI50 (KM12 colon): 11 µM | TGI (KM12 colon): > 100 µM | GI50 (BT-549 breast): 2.16 µM | TGI (BT-549 breast): 6.98 µM | GI50 (UACC-257 melanoma): 13.3 µM | TGI (UACC-257 melanoma): 79.5 µM | GI50 (CCRF-CEM leukemia): 2.93 µM | TGI (CCRF-CEM leukemia): 23.2 µM | GI50 (IGROV1 ovarian): 3.71 µM | TGI (IGROV1 ovarian): 14.3 µM | GI50 (COLO 205 colon): 2.64 µM | TGI (COLO 205 colon): 25 µM | GI50 (SN12C renal): 1.99 µM | TGI (SN12C renal): 4.47 µM
